Each structure is given as a SMILES string. In brackets after ≈: the same amount, converted by molar mass. Counter-ions that a name gives are not always drawn.

The nature of one data set: Solubility test in water. Format: physicochemical. The settings on record: room temperature, stirred 24 hours. Here is the method: The compounds of Examples 1 and 3 were chosen as test compounds.
The compound A was chosen as a comparative compound.
The test compounds and the comparative compound were each added to water, and each mixture was stirred at room temperature for 24 hours. The insoluble matter was removed by filtration using a membrane filter (0.2 μm). The filtrate was analyzed by HPLC to obtain solubility.

A further data set relates to MV4-11 cells. In words: Leukemic cell growth inhibition test (MV4-11). It is filed as cell-based. The conditions noted are these: MV4-11, 72 hours culture, CellTiter-Glo. On the procedure:
(§1) A leukemic cell growth inhibition test was performed by using the leukemic cell strains MV4-11 (ATCC Number, CRL-9591) and MOLM-13 (DSMZ Number, ACC554).
(§2) The leukemic cell growth inhibition test was performed by the method described below.
(§3) For the purpose of measuring growth inhibition with a test compound, the total cell count was quantified on the basis of the total cellular ATP concentration using the CellTitet-Glo (PerkinElmer) reagent that enables quantification of ATP concentration based on the luciferin-luciferase reaction. The MOLM-13 or MV4-11 cells were added to the RPMI medium containing penicillin (100 units/mL), streptomycin (100 μg/mL), and 10% FBS at a density of 2×10^5 cells/ml, and 50 μL (10,000 cells) of the mixture was inoculated to each well of a 96-well plate (Corning).
(§4) A serially diluted solution of a test compound or 0.1% DMSO (solvent control) in a volume of 50 μL was added to the cells, and then the cells were cultured for 72 hours under the standard cell proliferation conditions (37° C., 5% CO2) to allow proliferation of the cells. In order to measure the total cell proliferation, equal volume of the CellTitet-Glo reaction mixture was added to each well in accordance with the instructions attached to CellTitet-Glo, and luminescence count was quantified (relative light unit, RLU).
(§5) The RLU signal observed for the DMSO solvent control after 72 hours of culture was defined as a signal indicating 0% inhibition, and the GI50 value for the growth inhibition corresponds to a concentration of a compound that provides 50% inhibition of the total cell proliferation observed in the DMSO solvent control. Each data point was obtained from samples prepared in duplicate. The GI50 values were calculated by the non-linear regression fitting (Fit Model (205)) according to a sigmoid dose-reaction equation using the XLfit software.
Background: Cellular ATP, detected with luciferase, serves as a proxy for viable cell number.

The next data set concerns MOLM-13 cells. Briefly: Leukemic cell growth inhibition test (MOLM-13). It is filed as cell-based. The conditions noted are these: MOLM-13, 72 hours culture, CellTiter-Glo. On the procedure: as §1, §2, §3, §4, §5
The nature of data set [1]: Storage stability test (1), open glass bottle, 2 weeks. It is filed as physicochemical. The settings on record: for storage stability / Moisture content / Purity: open glass bottle; for storage stability / change of the purity and moisture content after storage: in words; for change of the purity and moisture content after storage: storage over 2 weeks. Here is the method: (§6) The purities are represented in terms of area % measured by high performance liquid chromatography (HPLC). The HPLC measurement was performed by using Prominence (Shimadzu) under the following conditions.
Crystals of the compounds of Examples 1 and 3 were chosen as test substances.
Each test substance (200 mg) was put into a glass bottle of an open state, and stored for 2 weeks under the storage condition 1 (25° C., 75% relative humidity), or the storage condition 2 (40° C., 75% relative humidity). Purity and moisture content of the test substance were measured before the start of the test and after the end of the test.

Data set [2] can be described thus: Storage stability test (2), double plastic bag, 4 weeks. It is filed as physicochemical. On the procedure: as §6
The crystals of the compound of Example 1 were chosen as test substance.
The test substance (200 mg) was put into double plastic bag, and the opening was tied up. The bag was stored for 4 weeks under the storage condition 1 (25° C., 75% relative humidity), or the storage condition 2 (40° C., 75% relative humidity). Purity and moisture content of the test substance were measured before the start of the test and after the end of the test.

Setting [3] is: storage condition 1 (25° C., 75% relative humidity), 2 weeks.
Setting [4] is: storage condition 2 (40° C., 75% relative humidity), 2 weeks.
Setting [5] is: storage condition 1 (25° C., 75% relative humidity), 4 weeks.
[6] abbreviates: storage condition 2 (40° C., 75% relative humidity), 4 weeks.

For the compound `CCCNc1nc(Nc2ccc(C#N)cc2)ncc1C#CCCCNC(=O)[C@H](C)N(C)C(=O)/C=C/CN(C)C` [Compound A, (S,E)-N-(1-((5-(2-((4-cyanophenyl)amino)-4-(propylamino)pyrimidin-5-yl)pent-4-yn-1-yl)amino)-1-oxopropan-2-yl)-4-(dimethylamino)-N-methylbut-2-enamide], the Solubility (in general, the concentration that dissolves in the medium under given conditions) in “Solubility test in water” is 20 µg/mL (≈ 37.7 µM).
As for `CCCNc1nc(Nc2ccc(C#N)cc2)ncc1C#CCCCNC(=O)[C@H](C)N(C)C(=O)/C=C/CN(C)C` [Example 1, succinate of the compound A], the 50% growth inhibitory concentration (GI50) (usually the concentration that inhibits growth by half) was 0.52 nM in the data set with MV4-11 cells (Homo sapiens, MV4-11, 72 h) and 1.47 nM in the data set on MOLM-13 cells (Homo sapiens, MOLM-13, 72 h). In “Solubility test in water”, this compound had a Solubility of 70000 µg/mL. In addition, the storage stability result in data set [1] (2 weeks) is recorded as “superior”. Also, the Moisture content in data set [1] (before start of test) is on record as 0.5%; in data set [1] (setting [3]), 0.2%; in data set [1] (setting [4]) it was 0.2%; in data set [2] (before start of test), 0.2%; in data set [2] (setting [5]), 0.2%; in data set [2] (setting [6]) it was 0.2%. In addition, the Purity in data set [1] (before start of test) worked out at 99.6%; in data set [1] (setting [3]) it was 99.6%; in data set [1] (setting [4]), 99.6%; in data set [2] (before start of test) it was 99.4%; in data set [2] (setting [5]), 99.4%; in data set [2] (setting [6]) it was 99.4%. Moreover, in data set [1], the “change of the purity and moisture content after storage” value is “little change”.
With `CCCNc1nc(Nc2ccc(C#N)cc2)ncc1C#CCCCNC(=O)[C@H](C)N(C)C(=O)/C=C/CN(C)C` [Example 2, succinate of the compound A], the figures for the concentration for 50% growth inhibition (GI50) with MV4-11 cells and in the data set on MOLM-13 cells were 0.6 nM and 1.5 nM, respectively. The Moisture content was 1.7% in data set [1] (before start of test), 3.2% in data set [1] (setting [3]) and 2.1% in data set [1] (setting [4]). The values for the Purity in data set [1] (before start of test), in data set [1] (setting [3]) and in data set [1] (setting [4]) were 99.7%, 99.6% and 99.6%, respectively.
For `CCCNc1nc(Nc2ccc(C#N)cc2)ncc1C#CCCCNC(=O)[C@H](C)N(C)C(=O)/C=C/CN(C)C` [Example 3, fumarate of the compound A], the GI50 in the data set with MV4-11 cells amounted to 0.6 nM; in the data set on MOLM-13 cells it was 1.6 nM. For the same compound, the Solubility in the data set “Solubility test in water” amounted to 890 µg/mL. Also, the storage stability result in data set [1] (2 weeks) is “superior”. The “change of the purity and moisture content after storage” value in data set [1] was “little change”.

For the origin of these results see patent US9701644B2, “Salt of nitrogen-containing heterocyclic compound or crystal thereof, pharmaceutical composition, and FLT3 inhibitor” (FUJIFILM Corporation, priority 2013, dated 2017).
